What was measured:
[1] = biological target: T1, insulin receptors of isolated rat adipocytes (Rattus norvegicus, UniProt P15127); assay: Binding affinity to insulin receptors of isolated rat adipocytes; settings: relative to semisynthetic human insulin, potency set to 100%
T1 construct: endogenous in cells; host or cells: isolated rat adipocytes
Method: (§1) The biological activity in vitro was determined by measuring the binding affinity to the insulin receptors of isolated rat adipocytes and hepatocytes essentially as described in J. Gliemann, S. Gammeltoft: Diabetologia 10, 105-113 (1974).

[2] = biological target: insulin receptors of isolated rat hepatocytes (Rattus norvegicus, UniProt P15127)
Chain of insulin receptors of isolated rat hepatocytes (P15127 27-759 limits assumed): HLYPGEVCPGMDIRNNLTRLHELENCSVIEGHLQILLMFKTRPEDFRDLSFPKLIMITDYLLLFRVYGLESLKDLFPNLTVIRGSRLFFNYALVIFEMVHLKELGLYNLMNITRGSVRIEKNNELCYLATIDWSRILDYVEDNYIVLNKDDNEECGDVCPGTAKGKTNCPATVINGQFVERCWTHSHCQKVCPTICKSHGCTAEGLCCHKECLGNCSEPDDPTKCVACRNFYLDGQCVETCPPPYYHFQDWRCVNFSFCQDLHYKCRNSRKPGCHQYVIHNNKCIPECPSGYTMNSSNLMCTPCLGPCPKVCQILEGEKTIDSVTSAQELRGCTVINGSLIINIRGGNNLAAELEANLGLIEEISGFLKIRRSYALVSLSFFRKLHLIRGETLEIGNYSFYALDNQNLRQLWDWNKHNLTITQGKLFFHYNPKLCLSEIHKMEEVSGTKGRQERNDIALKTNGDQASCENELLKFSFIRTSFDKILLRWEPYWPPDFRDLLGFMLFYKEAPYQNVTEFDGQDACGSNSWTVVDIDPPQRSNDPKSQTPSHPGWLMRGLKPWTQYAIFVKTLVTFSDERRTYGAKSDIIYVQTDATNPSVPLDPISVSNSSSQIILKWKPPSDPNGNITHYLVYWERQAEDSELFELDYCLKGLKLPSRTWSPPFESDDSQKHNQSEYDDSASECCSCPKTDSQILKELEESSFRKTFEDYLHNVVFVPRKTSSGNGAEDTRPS
Chain of insulin receptors of isolated rat hepatocytes (P15127 764-1383 partner limits assumed): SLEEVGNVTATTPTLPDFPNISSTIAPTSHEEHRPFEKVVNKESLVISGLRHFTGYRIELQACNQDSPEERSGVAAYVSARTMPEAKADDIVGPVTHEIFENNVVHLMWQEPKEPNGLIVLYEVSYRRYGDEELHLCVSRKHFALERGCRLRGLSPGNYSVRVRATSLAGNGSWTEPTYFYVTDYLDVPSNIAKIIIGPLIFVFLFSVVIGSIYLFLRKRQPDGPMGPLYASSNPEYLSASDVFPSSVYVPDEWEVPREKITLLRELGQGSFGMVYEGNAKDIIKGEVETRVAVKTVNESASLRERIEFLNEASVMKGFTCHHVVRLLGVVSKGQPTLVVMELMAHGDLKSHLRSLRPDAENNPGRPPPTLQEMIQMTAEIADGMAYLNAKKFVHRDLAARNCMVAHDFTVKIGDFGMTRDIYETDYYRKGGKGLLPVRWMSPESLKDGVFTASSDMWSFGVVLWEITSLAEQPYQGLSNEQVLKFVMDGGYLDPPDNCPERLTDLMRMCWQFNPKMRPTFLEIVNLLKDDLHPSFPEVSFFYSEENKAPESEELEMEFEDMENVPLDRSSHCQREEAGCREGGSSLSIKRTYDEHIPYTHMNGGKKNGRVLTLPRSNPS
Method: as §1

T1 sequence (P15127 27-759 limits assumed): as the sequence (P15127 27-759 limits assumed) above
T1 sequence (P15127 764-1383 partner limits assumed): as the sequence (P15127 764-1383 partner limits assumed) above

Substance	Biological activity in vitro (binding affinity), Adipocytes [1]	Biological activity in vitro (binding affinity), Hepatocytes [2]
[His^B25 ]-human insulin	150%	142%
[His^B25, Asp^B28 ]-des[Thr^B30 ]-human insulin	130%	135%
[Tyr^B25, Asp^B28 ]-human insulin	201%	138%
[Tyr^B25 ]-human insulin	356%	222%
